Results reported in ChEMBL document CHEMBL3885861, “Open TG-GATES”.

Species: Rattus norvegicus
Assay: Open TG-GATES - Regimen: Daily Repeat
Type: toxicity, organism-based, Sprague-Dawley
Parameters: regimen Daily Repeat, gender Male, age 6 weeks
Conditions: in vivo, po, route gavage; for gamma-GTP / ALP / ALT / AST / BUN / CRE / Ca / DBIL / GLC / IP / K / LDH / Na / PL / RALB / TBIL / TC / TG / TP: tissue Plasma; for APTT / Bas / Eos / Fbg / Hb / Ht / Lym / MCH / MCHC / MCV / Mono / Neu / PT / Plat / RBC / Ret / WBC: tissue Blood; for KIDNEY_L / KIDNEY_R / KIDNEY_TOTAL: tissue Kidney; for LIVER: tissue Liver
[1] = 30 mg/kg, 72 h, dose level Middle, time 3 day
[2] = 30 mg/kg, […], dose level Middle, time 7 day
[3] = 30 mg/kg, […], dose level Middle, time 14 day
[4] = 30 mg/kg, […], dose level Middle, time 28 day

In the case of `CSc1ccc2c(c1)N(CCC1CCCCN1C)c1ccccc1S2` (stereo not drawn) [THIORIDAZINE], the gamma-GTP (10 mg/kg, […], dose level Low, time 28 day) was 1.4 IU/L, the TERMINAL_BW [1] was 234.2 g and the APTT [1] was 15.8 s. For the same molecule, the Bas [1] was 0%, the Eos [1] was 1% and the Fbg [1] was 219.8 mg/dL. It also gave a Hb [1] of 14.1 g/dL, a Ht [1] of 42.2% and a Lym [1] of 79.6%. The MCH [1] was 21.7 pg, the MCHC [1] was 33.4% and the MCV [1] was 64.9 fL. It also gave a Mono [1] of 7%, a Neu [1] of 12.6% and a PT [1] of 11.9 s. The Plat [1] was 110.7 x10_4/uL, the RBC [1] was 651 x10_4/ul and the Ret [1] was 8%. For the same molecule, the WBC [1] was 122.3 x10_2/uL, the KIDNEY_L [1] was 1 g and the KIDNEY_R [1] was 1.1 g. The KIDNEY_TOTAL [1] was 2.1 g, the LIVER [1] was 12.3 g and the ALP [1] was 1002.8 IU/L. It also gave an ALT [1] of 44 IU/L, an AST [1] of 66.2 IU/L and a BUN [1] of 19 mg/dL. It also gave a CRE [1] of 0.5 mg/dL, a Ca [1] of 11.3 mg/dL and a DBIL [1] of 0.012 mg/dL. For the same molecule, the GLC [1] was 188 mg/dL, the IP [1] was 9.3 mg/dL and the K [1] was 4.9 meq/L. For the same molecule, the LDH [1] was 88.6 IU/L, the Na [1] was 139 meq/L and the PL [1] was 176.2 mg/dL. The RALB [1] was 4.1 g/dL, the TBIL [1] was 0.3 mg/dL and the TC [1] was 92 mg/dL. For the same molecule, the TG [1] was 105.6 mg/dL, the TP [1] was 6 g/dL and the gamma-GTP [1] was 1.6 IU/L. It also gave a TERMINAL_BW [2] of 271.1 g, a TERMINAL_BW [3] of 301.4 g and a TERMINAL_BW [4] of 394 g. The APTT [2] was 15.4 s, the Bas [2] was 0% and the Eos [2] was 0.6%. For the same molecule, the Fbg [2] was 235.6 mg/dL, the Hb [2] was 14.9 g/dL and the Ht [2] was 44.8%. It also gave a Lym [2] of 82.4%, an MCH [2] of 21.1 pg and an MCHC [2] of 33.2%. It also gave an MCV [2] of 63.6 fL, a Mono [2] of 5.8% and a Neu [2] of 11%. For the same molecule, the PT [2] was 11.9 s, the RBC [2] was 705.6 x10_4/ul and the Ret [2] was 5.7%. It also gave a WBC [2] of 139.8 x10_2/uL, an APTT [3] of 16.2 s and a Bas [3] of 0%. It also gave an Eos [3] of 1%, a Fbg [3] of 224.8 mg/dL and a Hb [3] of 14.5 g/dL. It also gave a Ht [3] of 41%, a Lym [3] of 76.8% and an MCH [3] of 22.1 pg. The MCHC [3] was 37.1%, the MCV [3] was 59.7 fL and the Mono [3] was 8.4%. For the same molecule, the Neu [3] was 14.4%, the PT [3] was 11.6 s and the Plat [3] was 101.3 x10_4/uL. The RBC [3] was 685.8 x10_4/ul, the Ret [3] was 3.8% and the WBC [3] was 148.2 x10_2/uL. For the same molecule, the APTT [4] was 18 s, the Bas [4] was 0% and the Eos [4] was 1%. For the same molecule, the Fbg [4] was 237.2 mg/dL, the Hb [4] was 15.5 g/dL and the Ht [4] was 46.8%. The Lym [4] was 83%, the MCH [4] was 19.6 pg and the MCHC [4] was 33.3%. It also gave an MCV [4] of 58.9 fL, a Mono [4] of 5.8% and a PT [4] of 11.9 s. The Plat [4] was 106.6 x10_4/uL, the RBC [4] was 795.4 x10_4/ul and the Ret [4] was 5.4%. It also gave a WBC [4] of 161 x10_2/uL, a KIDNEY_L [2] of 1.2 g and a KIDNEY_R [2] of 1.2 g. For the same molecule, the KIDNEY_TOTAL [2] was 2.3 g, the KIDNEY_L [3] was 1.3 g and the KIDNEY_R [3] was 1.3 g. The KIDNEY_TOTAL [3] was 2.5 g, the KIDNEY_L [4] was 1.4 g and the KIDNEY_R [4] was 1.5 g. For the same molecule, the KIDNEY_TOTAL [4] was 2.9 g, the LIVER [2] was 13.7 g and the LIVER [3] was 14 g. For the same molecule, the LIVER [4] was 17.9 g, the ALP [2] was 818.4 IU/L and the ALT [2] was 37.4 IU/L. The AST [2] was 64.2 IU/L, the BUN [2] was 17.8 mg/dL and the CRE [2] was 0.5 mg/dL. For the same molecule, the Ca [2] was 11.3 mg/dL, the DBIL [2] was 0.008 mg/dL and the GLC [2] was 183.8 mg/dL. For the same molecule, the IP [2] was 8.6 mg/dL, the K [2] was 4.8 meq/L and the LDH [2] was 84.8 IU/L. The Na [2] was 138.6 meq/L, the PL [2] was 174 mg/dL and the RALB [2] was 4.1 g/dL. It also gave a TBIL [2] of 0.3 mg/dL, a TC [2] of 88.4 mg/dL and a TG [2] of 124.8 mg/dL. For the same molecule, the TP [2] was 6.1 g/dL, the gamma-GTP [2] was 1.8 IU/L and the ALP [3] was 731.4 IU/L. It also gave an ALT [3] of 34.6 IU/L, an AST [3] of 65.8 IU/L and a BUN [3] of 16.4 mg/dL. It also gave a CRE [3] of 0.5 mg/dL, a Ca [3] of 10.5 mg/dL and a DBIL [3] of 0.02 mg/dL. It also gave a GLC [3] of 179.2 mg/dL, an IP [3] of 7.9 mg/dL and a K [3] of 4.8 meq/L. For the same molecule, the LDH [3] was 103.2 IU/L, the Na [3] was 139.4 meq/L and the PL [3] was 159.4 mg/dL. For the same molecule, the RALB [3] was 4.1 g/dL, the TBIL [3] was 0.3 mg/dL and the TC [3] was 77.6 mg/dL. For the same molecule, the TG [3] was 139.8 mg/dL, the TP [3] was 6.2 g/dL and the gamma-GTP [3] was 1 IU/L. The ALP [4] was 625.2 IU/L, the ALT [4] was 39.8 IU/L and the AST [4] was 66.2 IU/L. It also gave a BUN [4] of 20.2 mg/dL, a CRE [4] of 0.6 mg/dL and a Ca [4] of 11 mg/dL. The DBIL [4] was 0.002 mg/dL, the GLC [4] was 183.2 mg/dL and the IP [4] was 7.3 mg/dL. For the same molecule, the K [4] was 4.2 meq/L, the LDH [4] was 152.2 IU/L and the Na [4] was 140.2 meq/L. For the same molecule, the PL [4] was 159.4 mg/dL, the RALB [4] was 4.2 g/dL and the TBIL [4] was 0.3 mg/dL. It also gave a TC [4] of 77.4 mg/dL, a TG [4] of 122.6 mg/dL and a TP [4] of 6.4 g/dL. For the same molecule, the gamma-GTP [4] was 1.6 IU/L.
